Molecules are shown by their SMILES.

A short description of data set [1]: stability test: storage in a vacuum bag at 25° C. in the dark, HPLC analysis. Type of data set: physicochemical. How it is done:
The crystal of reduced coenzyme Q10 obtained in Example 1 and the crystal obtained in Comparative Example 1 were each placed in a vacuum bag, and stored at 25° C. in the dark. The weight ratio of reduced coenzyme Q10 to oxidized coenzyme Q10 was calculated by the HPLC analysis, and the results are shown in Table 1.
Conditions for HPLC Analysis:
• Chromatographic column: (Agilent) ZORBAX Extend C18 4.6×150 mm, 5 um • Mobile phase: mobile phase A: acetonitrile, mobile phase B: isopropanol, mobile phase C: methanol • Detection wavelength: 290 nm • Flow rate: 1.5 mL/min • Column temperature: 35° C. • Injection concentration: 1 mg/mL • Injection volume: 20 μL

Data set [2] in a line: solubility in purified water. Format: physicochemical. To be noted: 25° C.

On to `COc1c(O)c(C)c(C/C=C(\C)CC/C=C(\C)CC/C=C(\C)CC/C=C(\C)CC/C=C(\C)CC/C=C(\C)CC/C=C(\C)CC/C=C(\C)CC/C=C(\C)CCC=C(C)C)c(O)c1OC` [Comparative Example 1, reduced coenzyme Q10], for which the “weight ratio of reduced coenzyme Q10 to oxidized coenzyme Q10: oxidized coenzyme Q10 part” value in data set [1] (day 0, vacuum bag) is 0.65; in data set [1] (day 15, vacuum bag), 1.63; in data set [1] (day 30, vacuum bag), 5.47; in data set [1] (day 180, vacuum bag), 8.8; in data set [1] (day 360, vacuum bag), 17.0. In addition, the “weight ratio of reduced coenzyme Q10 to oxidized coenzyme Q10: reduced coenzyme Q10 part” value in data set [1] (day 0, vacuum bag) worked out at 98.20; in data set [1] (day 15, vacuum bag), 97.10; in data set [1] (day 30, vacuum bag), 93.40; in data set [1] (day 180, vacuum bag), 89.60; in data set [1] (day 360, vacuum bag) it was 82.0.
As for `COc1c(O)c(C)c(C/C=C(\C)CC/C=C(\C)CC/C=C(\C)CC/C=C(\C)CC/C=C(\C)CC/C=C(\C)CC/C=C(\C)CC/C=C(\C)CC/C=C(\C)CCC=C(C)C)c(O)c1OC` [Example 1, reduced coenzyme Q10], the “weight ratio of reduced coenzyme Q10 to oxidized coenzyme Q10: oxidized coenzyme Q10 part” value in data set [1] (day 0, vacuum bag) worked out at 0.40; in data set [1] (day 15, vacuum bag) it was 0.50; in data set [1] (day 30, vacuum bag), 0.80; in data set [1] (day 180, vacuum bag), 1.10; in data set [1] (day 360, vacuum bag), 1.94. Also, the “weight ratio of reduced coenzyme Q10 to oxidized coenzyme Q10: reduced coenzyme Q10 part” value in data set [1] (day 0, vacuum bag) is on record as 99.18; in data set [1] (day 15, vacuum bag), 99.00; in data set [1] (day 30, vacuum bag), 98.01; in data set [1] (day 180, vacuum bag), 97.90; in data set [1] (day 360, vacuum bag), 97.33. Besides, the “solubility in purified water” value in data set [2] is 0.5 % by weight.
On to `COc1c(O)c(C)c(C/C=C(\C)CC/C=C(\C)CC/C=C(\C)CC/C=C(\C)CC/C=C(\C)CC/C=C(\C)CC/C=C(\C)CC/C=C(\C)CC/C=C(\C)CCC=C(C)C)c(O)c1OC` [Example 2, reduced coenzyme Q10], for which, in data set [2], the “solubility in purified water” value is 0.5 % by weight.

The values are drawn from patent US12516010B2, “Crystal form of reduced coenzyme Q10 and preparation method therefor” ([…] BIOTECHNOLOGY (HAINAN) CO., LTD, priority 2023, dated 2026).
